Reference: ChEMBL document CHEMBL5370531, “Design, synthesis and pharmacological evaluation of 2,3-dihydrobenzofuran IRAK4 inhibitors for the treatment of diffuse large B-cell lymphoma” (Eur J Med Chem, 2023)
The source made the active and inactive calls. No cut-off for these calls is given here.

What was measured:
[1] = test system: OCI-Ly10; assay: Induction of apoptosis in human OCILY10 cells assessed as upregulation of PARP cleavage at 0.1 to 1 uM incubated for 24 hrs by immunoblotting analysis; assay type: functional, cell-based; settings: dose 0.1-1 µM
[2] = test system: OCI-Ly10; assay: Induction of apoptosis in human OCILY10 cells at 1 uM incubated for 48 hrs by Annexin V-FITC/PI staining based flow cytometry; assay type: functional
[3] = test system: OCI-Ly10; assay: Synergistic antiproliferative activity against human OCILY10 cells harboring MYD88 L265P assessed as inhibition of cell growth at 1600 nM incubated for 72 hrs in presence of BTK inhibitor, ibrutinib at 25 nM by CCK-8 assay (reference value: 64.69 %); assay type: functional
[4] = test system: OCI-Ly10; assay: Induction of apoptosis in human OCILY10 cells harboring MYD88 L265P assessed as early apoptotic cells at 0.2 uM incubated for 48 hrs in presence of BTK inhibitor, ibrutinib by Annexin V-FITC/PI staining based flow cytometry (reference value: 6.76 %); assay type: functional
[5] = target: Focal adhesion kinase 1 (Homo sapiens) (UniProt Q05397); assay: Inhibition of FAK (unknown origin) at 100 nM incubated for 1 hr in presence of ATP by ELISA analysis
[6] = test system: OCI-Ly10; assay: Induction of apoptosis in human OCILY10 cells assessed as late apoptotic cells at 0.2 uM incubated for 48 hrs by Annexin V-FITC/PI staining based flow cytometry (reference value: 3.54 %); assay type: functional
[7] = test system: OCI-Ly10; assay: Synergistic antiproliferative activity against human OCILY10 cells harboring MYD88 L265P assessed as inhibition of cell growth at 400 nM incubated for 72 hrs in presence of BTK inhibitor, ibrutinib at 12.5 nM by CCK-8 assay (reference value: 34.46 %); assay type: functional
[8] = target: Fibroblast growth factor receptor 2 (Homo sapiens) (UniProt P21802); assay: Inhibition of FGFR2 (unknown origin) at 100 nM incubated for 1 hr in presence of ATP by ELISA analysis
[9] = target: Vascular endothelial growth factor receptor 1 (Homo sapiens) (UniProt P17948); assay: Inhibition of VEGFR1 (unknown origin) at 100 nM incubated for 1 hr in presence of ATP by ELISA analysis
[10] = test system: OCI-Ly10; assay: Induction of apoptosis in human OCILY10 cells assessed as late apoptotic cells at 0.5 uM incubated for 48 hrs by Annexin V-FITC/PI staining based flow cytometry (reference value: 3.54 %); assay type: functional
[11] = test system: OCI-Ly10; assay: Synergistic antiproliferative activity against human OCILY10 cells harboring MYD88 L265P assessed as inhibition of cell growth at 200 nM incubated for 72 hrs in presence of BTK inhibitor, ibrutinib at 12.5 nM by CCK-8 assay (reference value: 26.07 %); assay type: functional
[12] = test system: OCI-Ly10; assay: Induction of apoptosis in human OCILY10 cells assessed as early apoptotic cells at 0.2 uM incubated for 48 hrs by Annexin V-FITC/PI staining based flow cytometry (reference value: 5.4 %); assay type: functional
[13] = test system: OCI-Ly10; assay: Synergistic antiproliferative activity against human OCILY10 cells harboring MYD88 L265P assessed as inhibition of cell growth at 100 nM incubated for 72 hrs in presence of BTK inhibitor, ibrutinib at 25 nM by CCK-8 assay (reference value: 21.36 %); assay type: functional
[14] = test system: OCI-Ly10; assay: Induction of apoptosis in human OCILY10 cells harboring MYD88 L265P assessed as late apoptotic cells at 0.2 uM incubated for 48 hrs in presence of BTK inhibitor, ibrutinib by Annexin V-FITC/PI staining based flow cytometry (reference value: 6.59 %); assay type: functional
[15] = test system: OCI-Ly10; assay: Induction of apoptosis in human OCILY10 cells harboring MYD88 L265P assessed as late apoptotic cells at 0.1 uM incubated for 48 hrs in presence of BTK inhibitor, ibrutinib by Annexin V-FITC/PI staining based flow cytometry (reference value: 6.59 %); assay type: functional
[16] = test system: OCI-Ly10; assay: Induction of apoptosis in human OCILY10 cells harboring MYD88 L265P assessed as upregulation of PARP cleavage at 0.1 uM in presence of BTK inhibitor, ibrutinib by immunoblotting analysis; assay type: functional, cell-based
[17] = test system: OCI-Ly10; assay: Synergistic antiproliferative activity against human OCILY10 cells harboring MYD88 L265P assessed as inhibition of cell growth at 100 nM incubated for 72 hrs in presence of BTK inhibitor, ibrutinib at 3.1 nM by CCK-8 assay (reference value: 21.36 %); assay type: functional
[18] = target: Receptor tyrosine-protein kinase erbB-4 (Homo sapiens) (UniProt Q15303); assay: Inhibition of ERBB4 (unknown origin) at 100 nM incubated for 1 hr in presence of ATP by ELISA analysis
[19] = test system: OCI-Ly10; assay: Induction of apoptosis in human OCILY10 cells assessed as early apoptotic cells at 0.2 uM incubated for 24 hrs by Annexin V-FITC/PI staining based flow cytometry (reference value: 10 %); assay type: functional
[20] = target: Ephrin type-A receptor 2 (Homo sapiens) (UniProt P29317); assay: Inhibition of EPHA2 (unknown origin) at 100 nM incubated for 1 hr in presence of ATP by ELISA analysis
[21] = test system: OCI-Ly10; assay: Induction of apoptosis in human OCILY10 cells harboring MYD88 L265P assessed as upregulation of caspase-3 cleavage at 0.2 uM in presence of BTK inhibitor, ibrutinib by immunoblotting analysis; assay type: functional, cell-based
[22] = test system: OCI-Ly10; assay: Induction of apoptosis in human OCILY10 cells assessed as early apoptotic cells at 1 uM incubated for 48 hrs by Annexin V-FITC/PI staining based flow cytometry (reference value: 5.4 %); assay type: functional
[23] = test system: OCI-Ly10; assay: Synergistic antiproliferative activity against human OCILY10 cells harboring MYD88 L265P assessed as inhibition of cell growth at 400 nM incubated for 72 hrs in presence of BTK inhibitor, ibrutinib at 3.1 nM by CCK-8 assay (reference value: 34.46 %); assay type: functional
[24] = test system: OCI-Ly10; assay: Synergistic antiproliferative activity against human OCILY10 cells harboring MYD88 L265P assessed as inhibition of cell growth at 100 nM incubated for 72 hrs in presence of BTK inhibitor, ibrutinib at 12.5 nM by CCK-8 assay (reference value: 21.36 %); assay type: functional
[25] = target: Mast/stem cell growth factor receptor Kit (Homo sapiens) (UniProt P10721); assay: Inhibition of C-kit (unknown origin) at 100 nM incubated for 1 hr in presence of ATP by ELISA analysis
[26] = test system: OCI-Ly10; assay: Synergistic antiproliferative activity against human OCILY10 cells harboring MYD88 L265P assessed as inhibition of cell growth at 200 nM incubated for 72 hrs in presence of BTK inhibitor, ibrutinib at 1.6 nM by CCK-8 assay (reference value: 26.07 %); assay type: functional
[27] = test system: OCI-Ly10; assay: Synergistic antiproliferative activity against human OCILY10 cells harboring MYD88 L265P assessed as inhibition of cell growth at 400 nM incubated for 72 hrs in presence of BTK inhibitor, ibrutinib at 1.6 nM by CCK-8 assay (reference value: 34.46 %); assay type: functional
[28] = test system: OCI-Ly10; assay: Induction of apoptosis in human OCILY10 cells assessed as late apoptotic cells at 0.5 uM incubated for 24 hrs by Annexin V-FITC/PI staining based flow cytometry (reference value: 3.71 %); assay type: functional

Mast/stem cell growth factor receptor Kit (Homo sapiens), sequence (P10721 whole entry): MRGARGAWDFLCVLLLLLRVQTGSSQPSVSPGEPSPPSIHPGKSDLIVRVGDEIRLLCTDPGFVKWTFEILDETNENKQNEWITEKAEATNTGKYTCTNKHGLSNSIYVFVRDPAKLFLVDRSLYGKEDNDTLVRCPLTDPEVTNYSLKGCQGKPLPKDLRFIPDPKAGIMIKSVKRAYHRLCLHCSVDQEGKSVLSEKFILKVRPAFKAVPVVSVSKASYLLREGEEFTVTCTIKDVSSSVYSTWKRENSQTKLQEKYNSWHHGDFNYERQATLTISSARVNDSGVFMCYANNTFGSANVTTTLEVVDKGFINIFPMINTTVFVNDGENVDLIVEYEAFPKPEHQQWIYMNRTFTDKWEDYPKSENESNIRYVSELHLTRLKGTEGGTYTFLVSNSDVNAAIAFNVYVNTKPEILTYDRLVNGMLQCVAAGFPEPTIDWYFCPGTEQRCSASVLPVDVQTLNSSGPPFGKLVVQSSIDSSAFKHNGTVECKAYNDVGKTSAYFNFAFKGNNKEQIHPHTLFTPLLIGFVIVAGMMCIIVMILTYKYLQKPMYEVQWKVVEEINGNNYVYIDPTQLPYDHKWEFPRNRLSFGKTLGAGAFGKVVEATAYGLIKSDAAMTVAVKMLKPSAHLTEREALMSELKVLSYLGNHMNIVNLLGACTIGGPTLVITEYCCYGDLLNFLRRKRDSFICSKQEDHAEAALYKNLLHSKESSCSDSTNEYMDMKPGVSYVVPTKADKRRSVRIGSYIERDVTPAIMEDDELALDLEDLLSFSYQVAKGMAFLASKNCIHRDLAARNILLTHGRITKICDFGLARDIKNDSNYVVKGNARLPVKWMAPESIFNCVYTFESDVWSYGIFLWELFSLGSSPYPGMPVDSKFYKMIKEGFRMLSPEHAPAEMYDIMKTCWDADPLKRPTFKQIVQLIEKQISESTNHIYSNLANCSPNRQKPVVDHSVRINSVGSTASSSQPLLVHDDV
Vascular endothelial growth factor receptor 1 (Homo sapiens), sequence (P17948 whole entry): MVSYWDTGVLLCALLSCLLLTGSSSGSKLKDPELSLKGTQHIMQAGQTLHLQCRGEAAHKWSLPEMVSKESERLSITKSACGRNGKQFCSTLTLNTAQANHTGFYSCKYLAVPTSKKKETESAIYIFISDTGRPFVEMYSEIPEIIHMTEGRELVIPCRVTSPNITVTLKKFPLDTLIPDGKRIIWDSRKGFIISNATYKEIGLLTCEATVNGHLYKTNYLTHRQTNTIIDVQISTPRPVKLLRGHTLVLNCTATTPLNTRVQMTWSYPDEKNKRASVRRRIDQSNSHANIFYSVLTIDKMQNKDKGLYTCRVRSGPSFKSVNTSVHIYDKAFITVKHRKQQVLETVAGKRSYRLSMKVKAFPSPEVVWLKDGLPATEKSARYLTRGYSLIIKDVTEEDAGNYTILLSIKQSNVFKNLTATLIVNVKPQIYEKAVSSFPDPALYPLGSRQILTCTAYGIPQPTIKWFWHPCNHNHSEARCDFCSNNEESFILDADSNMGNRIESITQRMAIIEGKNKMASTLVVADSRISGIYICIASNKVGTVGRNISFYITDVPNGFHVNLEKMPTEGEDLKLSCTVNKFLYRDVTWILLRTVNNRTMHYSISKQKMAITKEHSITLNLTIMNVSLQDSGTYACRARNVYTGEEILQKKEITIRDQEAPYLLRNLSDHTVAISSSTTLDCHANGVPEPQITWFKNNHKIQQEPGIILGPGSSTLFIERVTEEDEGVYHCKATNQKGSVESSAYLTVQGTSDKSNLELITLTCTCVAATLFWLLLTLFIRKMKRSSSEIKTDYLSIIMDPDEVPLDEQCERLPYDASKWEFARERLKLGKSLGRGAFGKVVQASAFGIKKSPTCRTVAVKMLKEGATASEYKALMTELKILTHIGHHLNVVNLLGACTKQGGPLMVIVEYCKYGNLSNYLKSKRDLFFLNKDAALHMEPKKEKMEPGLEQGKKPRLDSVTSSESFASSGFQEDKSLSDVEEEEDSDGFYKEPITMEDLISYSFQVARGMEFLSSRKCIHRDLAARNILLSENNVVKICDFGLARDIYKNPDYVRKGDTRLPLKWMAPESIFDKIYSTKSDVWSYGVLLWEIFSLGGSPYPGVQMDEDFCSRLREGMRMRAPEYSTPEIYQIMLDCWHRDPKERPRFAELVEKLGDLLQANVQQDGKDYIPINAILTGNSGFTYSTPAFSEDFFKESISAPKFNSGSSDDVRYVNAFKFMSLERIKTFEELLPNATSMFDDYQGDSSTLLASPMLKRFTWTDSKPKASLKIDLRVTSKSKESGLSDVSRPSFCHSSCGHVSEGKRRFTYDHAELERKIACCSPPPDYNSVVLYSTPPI
Fibroblast growth factor receptor 2 (Homo sapiens), sequence (P21802 22-821 limits assumed): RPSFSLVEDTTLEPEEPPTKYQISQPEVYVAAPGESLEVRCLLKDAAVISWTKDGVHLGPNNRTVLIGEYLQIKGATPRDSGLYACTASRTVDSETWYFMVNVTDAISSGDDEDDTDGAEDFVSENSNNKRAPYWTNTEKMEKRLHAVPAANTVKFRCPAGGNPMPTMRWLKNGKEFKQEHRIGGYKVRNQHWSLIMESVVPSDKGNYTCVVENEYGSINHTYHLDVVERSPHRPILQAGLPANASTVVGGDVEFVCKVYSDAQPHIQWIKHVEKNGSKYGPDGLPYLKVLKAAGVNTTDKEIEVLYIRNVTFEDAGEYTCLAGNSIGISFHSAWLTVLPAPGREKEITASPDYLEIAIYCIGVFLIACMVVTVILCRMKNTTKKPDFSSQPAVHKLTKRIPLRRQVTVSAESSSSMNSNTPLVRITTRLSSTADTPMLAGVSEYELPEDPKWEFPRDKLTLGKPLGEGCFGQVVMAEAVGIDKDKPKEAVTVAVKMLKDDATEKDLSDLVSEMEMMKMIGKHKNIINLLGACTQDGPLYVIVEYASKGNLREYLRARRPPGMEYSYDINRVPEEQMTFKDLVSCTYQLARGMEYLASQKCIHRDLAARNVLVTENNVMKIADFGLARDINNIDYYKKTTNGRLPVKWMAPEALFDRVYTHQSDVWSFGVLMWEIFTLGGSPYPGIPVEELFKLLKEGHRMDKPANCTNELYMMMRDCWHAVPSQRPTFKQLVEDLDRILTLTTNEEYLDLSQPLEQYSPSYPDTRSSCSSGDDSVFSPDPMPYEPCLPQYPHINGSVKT
Ephrin type-A receptor 2 (Homo sapiens), sequence (P29317 whole entry): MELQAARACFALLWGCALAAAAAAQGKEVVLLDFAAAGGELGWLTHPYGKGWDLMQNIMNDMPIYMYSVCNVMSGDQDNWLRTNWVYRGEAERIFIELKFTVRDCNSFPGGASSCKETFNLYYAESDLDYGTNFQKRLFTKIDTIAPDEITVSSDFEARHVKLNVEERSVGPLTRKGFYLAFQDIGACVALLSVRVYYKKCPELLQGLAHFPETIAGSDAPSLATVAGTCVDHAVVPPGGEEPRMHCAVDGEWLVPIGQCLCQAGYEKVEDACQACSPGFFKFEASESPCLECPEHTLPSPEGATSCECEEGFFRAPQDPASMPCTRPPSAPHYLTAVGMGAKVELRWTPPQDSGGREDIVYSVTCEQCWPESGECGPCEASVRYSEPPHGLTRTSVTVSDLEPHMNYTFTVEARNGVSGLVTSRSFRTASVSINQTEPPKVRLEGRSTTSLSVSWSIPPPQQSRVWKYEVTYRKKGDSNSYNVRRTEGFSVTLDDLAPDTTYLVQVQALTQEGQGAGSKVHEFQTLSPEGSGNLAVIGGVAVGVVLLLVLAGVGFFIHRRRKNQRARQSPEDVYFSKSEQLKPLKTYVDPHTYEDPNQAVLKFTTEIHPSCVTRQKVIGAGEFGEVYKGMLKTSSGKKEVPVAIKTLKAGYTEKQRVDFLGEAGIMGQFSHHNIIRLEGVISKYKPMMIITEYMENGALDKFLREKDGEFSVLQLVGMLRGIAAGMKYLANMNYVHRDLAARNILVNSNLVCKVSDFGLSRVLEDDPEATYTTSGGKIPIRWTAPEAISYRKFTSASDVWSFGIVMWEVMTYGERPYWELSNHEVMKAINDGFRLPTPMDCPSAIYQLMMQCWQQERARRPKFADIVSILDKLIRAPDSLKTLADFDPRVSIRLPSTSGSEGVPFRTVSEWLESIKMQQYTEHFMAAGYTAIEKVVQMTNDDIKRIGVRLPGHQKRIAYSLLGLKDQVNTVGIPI

`Cn1cc(-c2cc3c(cc2NC(=O)c2coc(-c4ccnc(N)c4)n2)CC(C)(C)O3)cn1` was tested, and the Activity [1] was “Active”, the Activity [2] was 92.3% and the inhibition at 1.6 µM [3] was 89.6%. For the same compound, the Activity [4] was 19.6%, the inhibition [5] was “inactive” and the Activity [6] was 13.2%. For the same compound, the inhibition at 0.4 µM [7] was 75.7%, the inhibition [8] was “inactive” and the inhibition [9] was “inactive”. For the same compound, the Activity [10] was 26.8%, the inhibition at 0.2 µM [11] was 67.5% and the Activity [12] was 21.2%. It also gave an inhibition at 0.1 µM [13] of 72.2%, an Activity [14] of 33.2% and an Activity [15] of 22%. The Activity [16] was “Active”, the inhibition at 0.1 µM [17] was 21.8% and the inhibition [18] was “inactive”. The Activity [19] was 11.2%, the inhibition [20] was “inactive” and the Activity [21] was “Active”. For the same compound, the Activity [22] was 54.4%, the inhibition at 0.4 µM [23] was 42.3% and the inhibition at 0.1 µM [24] was 62.1%. For the same compound, the inhibition [25] was “inactive”, the inhibition at 0.2 µM [26] was 26.9% and the inhibition at 0.4 µM [27] was 37.4%. It also gave an Activity [28] of 25.2%.
